Experimental data reported in patent publication US12163953B2, “P-phenylene ethynylene compounds as bioactive and detection agents” (STC.UNM, priority 2014, dated 2024).
Structures can show the parent of a compound that is named as a salt. Where two headings read alike, the source gives them in different places.

Key:
[1] = Absorbance and fluorescence of −1C with AChE inhibitors without LaCh (aggregation control); type: physicochemical; settings: 5 uM −1C with 5 ug/mL inhibitor, no LaCh
Description: As shown in FIGS. 12A-C, it is clear that inhibition of AChE by several different inhibitors is apparent in the attenuated loss of fluorescence compared with the reference solution, with no inhibitor. […] FIGS. 13A-B illustrate (A) absorbance and (B) fluorescence (Ex: 370 nm) of 5 uM −1C with 5 ug/mL of either LaCh or one of the three AChE Inhibitors used in this study. […] Further, there is little overlap between the fluorescence of the TAE-1/IPE complex and that of the PE/LaCh complex.

[2] = system: B. atrophaeus vegetative cells; type: cell-based, Bacillus atrophaeus; settings: 10 μg/mL
B. atrophaeus spores = type: cell-based, Bacillus atrophaeus
[3] = system: B. anthracis Sterne vegetative cells; type: cell-based, Bacillus anthracis Sterne; settings: 10 μg/mL, light-activated PE
[4] = system: B. anthracis Sterne spores; type: cell-based, Bacillus anthracis Sterne; settings: within 90 minutes
[5] = biological target: T1, HEWL fibrils incubated for different lengths of time (Gallus gallus, UniProt P00698); experiment: Fluorescence enhancement of dyes versus HEWL incubation time; type: binding, hen
T1 construct: Lyophilized HEWL was dissolved at 10 mg/mL in 10 mM pH 3 sodium citrate buffer with 0.1 M NaCl; purchased Sigma-Aldrich; host or cells: hen egg white; fibrillised in house (pH 3, 70 °C, stirred)
Description: Hen egg white lysozyme (HEWL) was used to form fibrillary amyloid aggregates for use in this study. […] For these experiments. HEWL (Sigma-Aldrich) was incubated at 70′C and a concentration of 350 μM in pH 3 sodium citrate buffer (10 mM) with 100 mM NaCl.
A plot of normalized fluorescence enhancement for all four PEs and Thioflavin T with HEWL fibrils incubated for different lengths of time is shown in FIG. 15. PE1+ and PE2+ track amyloid formation in roughly the same way as ThT, showing a sigmoidal curve with onset of a logarithmic growth phase occurring at the same time, around 1 hour of incubation. The plateau phase, as monitored by fluorescence of any of those three PEs or ThT, appeared at 2 hours incubation.
(§1) For studies of fluorescence enhancement vs. protein incubation time, dyes were mixed with protein sample in phosphate buffer (10 mM, pH 7.4) at equal monomer concentration of 10 μM in the wells of a standard 96-well plate. Emission spectra were obtained using top read with a SpectraMax M2e plate-reading spectrophotometer (Molecular Devices, Sunnyvale, CA). Experiments were performed in duplicate and errors are reported as standard deviation. For analysis of bound PE excitation and emission spectra and protein-PE energy transfer, PEs (500 nM) were mixed with protein sample (5 μM, monomer basis) in phosphate buffer and the solution transferred to a quartz, fluorometry cuvette. Spectra were obtained on a PTI QuantaMaster 40 steady state spectrofluorometer (HORIBA Scientific, Edison, NJ).

[6] = Absorbance/fluorescence spectroscopy and fluorescence quantum yield (comparative method) of PEs and PE/substrate aggregates; type: physicochemical
[7] = Photophysical properties of PEs alone (excitation/emission spectra, fluorescence yield); type: physicochemical
Description: Excitation and emission spectra of PEs in phosphate buffer alone, with monomeric HEWL and with HEWL amyloids (8 h incubated) are shown in FIGS. 18A-H, and relevant photophysical properties are summarized in Table 1. FIGS. 18A-H illustrate excitation (A, B, C, D) and emission (right; E, F, G. H) spectra of PEs (A, E: PE1+; B, F: PE1−; C, G: PE2+; D, H: […]) alone (long dashed line) with HEWL monomers (short dashed line) and with HEWL amyloids (solid line); PE concentration: 500 nM, protein concentration: 5 μM monomer basis/0.25 mg/mL; emission and excitation wavelengths, respectively, were chosen as shown in Table 1 for each sample. A 10:1 molar ratio of protein to PE was used for these experiments. Absorbance spectra were taken, but background light scattering from insoluble amyloid aggregates made them difficult to interpret, so “fluorescence detected absorbance” in the form of excitation spectra was used instead. Normalized excitation and emission spectra, in which peak shifts and lineshape changes of spectra were somewhat easier to visualize, were used. […] PE1+ (FIG. 18E) had no change in wavelength or lineshape of emission spectrum, just a large increase in intensity when mixed with amyloids. The excitation spectra (FIGS. 18A, B, C, D) show a notable bathochromic shift for each PE in solution mixed with amyloid, of 23, 27, 35 and 29 nm for PE1+, PE2+, PE3+ and PE1−, respectively, observing only the low-energy band. The high-energy band, less relevant for imaging purposes, was also bathochromically shifted. […] PE1− had similar excitation spectrum (FIG. 18B) with monomer and amyloid, except for a large intensity difference.
as §1

HEWL amyloids = biological target: T2, HEWL amyloids (Gallus gallus, UniProt P00698); experiment: Excitation and emission spectra of PEs with HEWL amyloids; type: binding, hen; settings: PE 500 nM, HEWL amyloid 5 μM monomer basis
T2 construct: Lyophilized HEWL was dissolved at 10 mg/mL in 10 mM pH 3 sodium citrate buffer with 0.1 M NaCl; purchased Sigma-Aldrich; host or cells: hen egg white; fibrillised in house (pH 3, 70 °C, stirred)
Description: Excitation and emission spectra of PEs in phosphate buffer alone, with monomeric HEWL and with HEWL amyloids (8 h incubated) are shown in FIGS. 18A-H, and relevant photophysical properties are summarized in Table 1. FIGS. 18A-H illustrate excitation (A, B, C, D) and emission (right; E, F, G. H) spectra of PEs (A, E: PE1+; B, F: PE1−; C, G: PE2+; D, H: PE3+) in phosphate buffer (PB, pH 7.4, 10 mM) alone (long dashed line) with HEWL monomers (short dashed line) and with HEWL amyloids (solid line); PE concentration: 500 nM, protein concentration: 5 μM monomer basis/0.25 mg/mL; emission and excitation wavelengths, respectively, were chosen as shown in Table 1 for each sample. A 10:1 molar ratio of protein to PE was used for these experiments. Absorbance spectra were taken, but background light scattering from insoluble amyloid aggregates made them difficult to interpret, so “fluorescence detected absorbance” in the form of excitation spectra was used instead. Normalized excitation and emission spectra, in which peak shifts and lineshape changes of spectra were somewhat easier to visualize, were used. […] PE1+ (FIG. 18E) had no change in wavelength or lineshape of emission spectrum, just a large increase in intensity when mixed with amyloids. The excitation spectra (FIGS. 18A, B, C, D) show a notable bathochromic shift for each PE in solution mixed with amyloid, of 23, 27, 35 and 29 nm for PE1+, PE2+, PE3+ and PE1−, respectively, observing only the low-energy band. The high-energy band, less relevant for imaging purposes, was also bathochromically shifted. […] PE1− had similar excitation spectrum (FIG. 18B) with monomer and amyloid, except for a large intensity difference.
Lyophilized HEWL was dissolved at 10 mg/mL in 10 mM pH 3 sodium citrate buffer with 0.1 M NaCl. The solution was incubated in a 70C oil bath and magnetically stirred at 250 rpm for 12 h, and aliquots were withdrawn at half-hour intervals. […] Half of each aliquot was immediately diluted into pH 7.4 phosphate buffer to prevent further influence of acidic conditions and stored at 4C.
as §1

HEWL monomers = biological target: T3, HEWL monomers (Gallus gallus, UniProt P00698); experiment: Fluorescence interaction of PEs with HEWL monomers; type: binding, hen; settings: HEWL monomers 5 μM/0.25 mg/mL
T3 construct: Hen egg white lysozyme and Thioflavin T were obtained from Sigma-Aldrich Chemical Company; purchased Sigma-Aldrich; host or cells: hen egg white
Description: Excitation and emission spectra of PEs in phosphate buffer alone, with monomeric HEWL and with HEWL amyloids (8 h incubated) are shown in FIGS. 18A-H, and relevant photophysical properties are summarized in Table 1. FIGS. 18A-H illustrate excitation (A, B, C, D) and emission (right; E, F, G. H) spectra of PEs (A, E: PE1+; B, F: PE1−; C, G: PE2+; D, H: PE3+) in phosphate buffer (PB, pH 7.4, 10 mM) alone (long dashed line) with HEWL monomers (short dashed line) and with HEWL amyloids (solid line); PE concentration: 500 nM, protein concentration: 5 μM monomer basis/0.25 mg/mL; emission and excitation wavelengths, respectively, were chosen as shown in Table 1 for each sample. […] Absorbance spectra were taken, but background light scattering from insoluble amyloid aggregates made them difficult to interpret, so “fluorescence detected absorbance” in the form of excitation spectra was used instead. […]
[formula] where x is PE concentration (with protein concentration fixed), y is PE fluorescence intensity. […] Fits to the data for the three cationic PEs produced Fmax values close to the observed saturation value, and the other two parameters are reported as calculated. […]
For studies of fluorescence enhancement vs. protein incubation time, dyes were mixed with protein sample in phosphate buffer (10 mM, pH 7.4) at equal monomer concentration of 10 μM in the wells of a standard 96-well plate. […]

HEWL amyloid fibrils = biological target: T4, HEWL amyloid fibrils (Gallus gallus, UniProt P00698); experiment: Induced circular dichroism of PE-amyloid complexes; type: binding, hen; settings: PEs 10 μM, HEWL 10 μM monomer basis
T4 construct: Lyophilized HEWL was dissolved at 10 mg/mL in 10 mM pH 3 sodium citrate buffer with 0.1 M NaCl; purchased Sigma-Aldrich; host or cells: hen egg white; fibrillised in house (pH 3, 70 °C, stirred)
Description: Circular dichroism measurements were performed to determine if the intrinsic chirality of the HEWL fibrils was transferred to the PE chromophore by a chiral backbone twist or an “excitonic” chiral supramolecular aggregate. CD spectroscopy (CPEs in PB with HEWL monomer and with HEWL amyloid; performed for (a): PE1+; (b): PE1−; (c): PE2+; (d): PE3+; PEs 10 μM, HEWL 10 μM monomer basis/0.5 mg/mL) indicated induced circular dichroism of PEs when bound to HEWL amyloids. As expected, no PE had optical activity by itself in phosphate buffer solution and none of the PEs had any CD with HEWL monomer, including PE1−. […] PE2+ and PE3+ gave rise to similar CD spectra, with more intense bands in the spectrum for PE3+.
PEs and protein samples were diluted in phosphate buffer, gently vortexed, and read in a 1 mm pathlength quartz CD cuvette using an Aviv 410 CD spectrometer (Aviv Biomedical, Lakewood, NJ), 15 s averaging time. A blank spectrum (PB only) was subtracted from each sample to remove background activity. Error bars are standard deviation over multiple reads of a single sample as reported by the instrument.

[8] = phosphate buffer pH 7.4, 10 mM, PE 500 nM

T2 sequence (P00698 19-147): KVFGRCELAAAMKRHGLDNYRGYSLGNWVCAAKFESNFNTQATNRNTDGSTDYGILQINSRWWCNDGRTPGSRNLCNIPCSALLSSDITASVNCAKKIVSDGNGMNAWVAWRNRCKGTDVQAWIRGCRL
T1 sequence (P00698 19-147): as above
T4 sequence (P00698 19-147): as above
T3 sequence (P00698 19-147): as above

## C[N+](C)(C)CCOC(=O)c1ccc(Oc2nc(Oc3ccc(C(=O)OCC[N+](C)(C)C)cc3)nc(Oc3ccc(C(=O)OCC[N+](C)(C)C)cc3)n2)cc1.[I-].[I-].[I-] [TAE-1]
[1]
  aggregation induced with −1C: red-shifted absorbance and a strongly red-shifted and broadened green fluorescence

## C[N+](C)(C)CCOc1ccc(C#CC2=CC=C(C#Cc3ccc(OCC[N+](C)(C)C)cc3)C2)cc1.I [EO-PE (Th,C2)]
[2]; 1 hour, light-activated (UVA)
  cell death: 99%
[2]; 1 hr, dark
  uptake of PI relative to untreated cells: increased tenfold
[2]; 1 hr, in the absence of light
  cells killed: 73%
B. atrophaeus spores
  effect of increasing PE concentration on death or germination of spores: no increased effect
  spores in which the water influx event progressed to stain uptake matching vegetative cells (germination): 39%
  spores still fluorescing like untreated spores (S gate): 61%
  spores that successfully germinate: 15%
[3]; within 30 minutes
  log reduction of vegetative cells: ~4 log
[3]; within 90 minutes
  log reduction of vegetative cells: 5 log
[4]; 20 ng PE/spore, light-activated PE
  killing of spores: 99%
[4]; absence of UVA light
  spores induced to germinate: 81%
  spores not killed that germinate into viable colony-forming vegetative cells (of all spores): 72%

## Cc1ccc2c(c1)sc(-c1ccc(N(C)C)cc1)[n+]2C.[Cl-] [ThT, Thioflavin T, reference compound]
[5]; dye 10 μM, HEWL 10 μM monomer basis
  HEWL incubation time at which the plateau phase of fluorescence enhancement appears: 2 h

## CCOC(=O)c1ccc(C#Cc2cc(OCCS(=O)(=O)O)c(C#Cc3ccc(C(=O)OCC)cc3)cc2OCCS(=O)(=O)O)cc1 [PE1−]
[6]; 5 uM PE with 32 uM LaCh
  enhancement of fluorescence quantum yield, LaCh complex versus PE alone: 66 times
  fluorescence quantum yield of aggregate with LaCh: 0.991
[6]; +2C with DLPG, −1C with LaCh
  centre of structured emission upon aggregation with substrate: 442 nm
[6]; in water, corrected value of this study
  fluorescence quantum yield, PE alone: 0.015
[7]; H2O
  λem (H2O): 454 nm
[7]; phosphate buffer
  λem (PB): 454 nm
[7]; [8]
  λex (PB), high-energy band: 314 nm
  λex (PB), low-energy band: 370 nm
HEWL amyloids
  bathochromic shift of excitation spectrum, low-energy band, with amyloid: 29 nm
HEWL amyloids; PB
  λem (PB w/ HEWL): 439 nm
  λex (PB w/HEWL), high-energy band: 327 nm
  λex (PB w/HEWL), low-energy band: 399 nm
HEWL monomers
  binding to HEWL monomers: linear and non-saturable
[5]; equimolar concentrations, 10 μM
  fluorescence enhancement with monomeric species versus amyloid: greater fluorescence enhancement when mixed with monomeric species than with amyloid
HEWL amyloid fibrils
  induced circular dichroism with HEWL amyloid: strong induced CD with a negative Cotton effect

## COc1ccc(C(=O)NCc2ccc(OCCN(C)C)cc2)cc1OC [Itopride, N-[[4-[2-(Dimethylamino)ethoxy]phenyl]methyl]-3,4-dimethoxy benzamidehydrochloride]
[1]
  aggregation induced with −1C: no significant aggregation

## CCC1(c2cccc(O)c2)CCCCN(C)C1.Cl (stereo not shown) [Meptazinol, 3-(3-ethylhexahydro-1-methyl-1H-azepin-3-yl)-phenol hydrochloride]
[1]
  aggregation induced with −1C: no significant aggregation
